According to PubChem BioAssay (NCI):
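Method: 48-hour compound exposure of cells in 96-well plates, five concentrations, linear interpolation of endpoints. The concentration for 50% growth inhibition is given as GI50. TGI: concentration producing complete growth inhibition.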

Legend:
Assay in all cases: inhibition of tumour cell growth, NCI panel, 48 h
[1] = system: SK-MEL-2 melanoma
[2] = system: HT29 colon
[3] = system: SF-295 CNS
[4] = system: HS 578T breast
[5] = system: HCT-15 colon
[6] = system: HCC-2998 colon
[7] = system: NCI-H226 lung
[8] = system: NCI-H23 lung
[9] = system: MDA-MB-231 breast
[10] = system: SF-539 CNS
[11] = system: HOP-92 NSCLC
[12] = system: NCI-H460 lung
[13] = system: SK-MEL-5 melanoma
[14] = system: 786-0 renal
[15] = system: TK-10 renal
[16] = system: UO-31 renal
[17] = system: IGROV1 ovarian
[18] = system: M14 melanoma
[19] = system: SNB-19 CNS
[20] = system: T-47D breast
[21] = system: ACHN renal
[22] = system: A498 renal
[23] = system: OVCAR-5 ovarian
[24] = system: OVCAR-4 ovarian
[25] = system: COLO 205 colon
[26] = system: OVCAR-8 ovarian
[27] = system: SN12C renal
[28] = system: LOX IMVI melanoma
[29] = system: A549 NSCLC
[30] = system: MALME-3M melanoma
[31] = system: SW-620 colon
[32] = system: OVCAR-3 ovarian
[33] = system: U251 CNS
[34] = system: EKVX NSCLC
[35] = system: NCI/ADR-RES ovarian
[36] = system: SK-OV-3 ovarian
[37] = system: CAKI-1 renal
[38] = system: BT-549 breast
[39] = system: MDA-MB-435
[40] = system: HCT-116 colon
[41] = system: KM12 colon
[42] = system: RXF 393 renal
[43] = system: SK-MEL-28 melanoma
[44] = system: RPMI-8226 leukemia
[45] = system: DU-145 prostate
[46] = system: SR leukemia
[47] = system: MCF7 breast
[48] = system: PC-3 prostate
[49] = system: HL-60(TB) leukemia
[50] = system: UACC-62 melanoma
[51] = system: SF-268 CNS
[52] = system: SNB-75 CNS
[53] = system: NCI-H522 lung
[54] = system: HOP-62 NSCLC
[55] = system: UACC-257 melanoma
[56] = system: CCRF-CEM leukemia
[57] = system: K-562 leukemia

## CN(C)c1ccc2cc(-c3ccccc3F)c(N)nc2c1
[1]
  GI50: 2.05 µM
  TGI: 15 µM
[2]
  GI50: 0.529 µM
  TGI: 11 µM
[3]
  GI50: 1.04 µM
  TGI: 12.4 µM
[4]
  GI50: 2.83 µM
  TGI: 18.5 µM
[5]
  GI50: 0.469 µM
  TGI: 13.2 µM
[6]
  GI50: 3.18 µM
  TGI: 17.6 µM
[7]
  GI50: 3.61 µM
  TGI: 20.3 µM
[8]
  GI50: 2.89 µM
  TGI: 15.7 µM
[9]
  GI50: 3.71 µM
  TGI: 19.6 µM
[10]
  GI50: 2.1 µM
  TGI: 7.99 µM
[11]
  GI50: 1.4 µM
  TGI: 9.7 µM
[12]
  GI50: 2.02 µM
  TGI: 13.2 µM
[13]
  GI50: 1.54 µM
  TGI: 6.31 µM
[14]
  GI50: 2.49 µM
  TGI: 14.3 µM
[15]
  GI50: 3.83 µM
  TGI: 16.2 µM
[16]
  GI50: 3.16 µM
  TGI: 16.5 µM
[17]
  GI50: 2.81 µM
  TGI: 24.4 µM
[18]
  GI50: 0.448 µM
  TGI: 4.5 µM
[19]
  GI50: 3.1 µM
  TGI: 19.2 µM
[20]
  GI50: 1.26 µM
  TGI: 13.6 µM
[21]
  GI50: 3.8 µM
  TGI: 17.3 µM
[22]
  GI50: 2.32 µM
  TGI: 15.2 µM
[23]
  GI50: 3.55 µM
  TGI: 17.8 µM
[24]
  GI50: 3.83 µM
  TGI: 36 µM
[25]
  GI50: 1.38 µM
  TGI: 6.35 µM
[26]
  GI50: 3.71 µM
  TGI: 15.8 µM
[27]
  GI50: 4.55 µM
  TGI: 19.2 µM
[28]
  GI50: 2.69 µM
  TGI: 15.1 µM
[29]
  GI50: 2.46 µM
  TGI: 16.4 µM
[30]
  GI50: 1.71 µM
  TGI: 15.9 µM
[31]
  GI50: 0.636 µM
  TGI: 17.2 µM
[32]
  GI50: 0.922 µM
  TGI: 7.62 µM
[33]
  GI50: 1.24 µM
  TGI: 12.7 µM
[34]
  GI50: 6.57 µM
  TGI: 26.7 µM
[35]
  GI50: 1.06 µM
  TGI: 12.3 µM
[36]
  GI50: 2.52 µM
  TGI: 12.2 µM
[37]
  GI50: 3.17 µM
  TGI: 21 µM
[38]
  GI50: 2.57 µM
  TGI: 10.6 µM
[39]
  GI50: 0.288 µM
  TGI: 10.3 µM
[40]
  GI50: 0.454 µM
  TGI: 11 µM
[41]
  GI50: 0.89 µM
  TGI: 14.9 µM
[42]
  GI50: 2.53 µM
  TGI: 10.8 µM
[43]
  GI50: 2.57 µM
  TGI: 19.6 µM
[44]
  GI50: 2.83 µM
  TGI: 17.7 µM
[45]
  GI50: 3.09 µM
  TGI: 13.2 µM
[46]
  GI50: 0.491 µM
  TGI: 4.99 µM
[47]
  GI50: 0.431 µM
  TGI: 14.4 µM
[48]
  GI50: 2.21 µM
  TGI: 15.2 µM
[49]
  GI50: 0.419 µM
  TGI: 9.36 µM
[50]
  GI50: 0.89 µM
  TGI: 12 µM
[51]
  GI50: 3.89 µM
  TGI: 19.8 µM
[52]
  GI50: 1.86 µM
  TGI: 9.69 µM
[53]
  GI50: 1.35 µM
  TGI: 5.87 µM
[54]
  GI50: 1.68 µM
  TGI: 12.7 µM
[55]
  GI50: 6.12 µM
  TGI: 18.3 µM
[56]
  GI50: 2.04 µM
  TGI: 43.7 µM
[57]
  GI50: 0.393 µM
  TGI: 16.6 µM
